The test system of data set [1] is B cell receptor. Briefly: Whole blood potency: CD69 on CD19+ B cells after anti-human IgD. It counts as cell-based. As to conditions: blood from four healthy donors, 2 hours with compound, anti-human IgD 10 μg/mL 18 hours, read-out: EC50, CD69 on gated CD19+ B cells in whole blood.
Data set [2] relates to GPVI. Briefly: GPVI platelet aggregation (convulxin). It counts as cell-based, human. On the procedure:
GPVI platelet aggregation was measured for Formula (2) and Formula (10) (ibrutinib). Blood was obtained from untreated humans, and platelets were purified from […] by centrifugation. Cells were resuspended to a final concentration of 350,000/μL in buffer containing 145 mmol/L NaCl, 10 mmol/L HEPES, 0.5 mmol/L Na2HPO4, 5 mmol/L KCl, 2 mmol/L MgCl2, 1 mmol/L CaCl2, and 0.1% glucose, at pH 7.4. Stock solutions of Convulxin (CVX) GPVI were prepared on the day of experimentation and added to platelet suspensions 5 minutes (37° C., 1200 rpm) before the induction of aggregation. Aggregation was assessed with a Chronolog Lumi-Aggregometer (model 540 VS; Chronolog, Havertown, PA) and permitted to proceed for 6 minutes after the addition of agonist. The results are reported as maximum percent change in light transmittance from baseline with platelet buffer used as a reference.
In FIG. 72, the results of CVX-induced (250 ng/mL) human platelet aggregation results before and 15 minutes after administration of the BTK inhibitors to 6 healthy individuals are shown.

Data set [3] deals with CD8+ T cells. Briefly: CD8+ T cell viability. It counts as cell-based. As to conditions: anti-TCR and anti-CD28 coated wells, neutral conditions, 4 days. On the procedure:
Total T cells were plated on anti-TCR and anti-CD28 coated wells in the presence of both BTK inhibitors. Neutral culture conditions were used that will not polarize T cells to a helper lineage. […] Statistical significance was calculated using the Mann Whitney T-test.

For data set [4], the system named is Raji. Briefly: ADCC chromium release assay, Raji targets. It counts as cell-based, human. The note with it: 1 μM; all rituximab concentrations; healthy donor NK cells. How it is done: All in vitro experiments were performed in triplicate.
ADCC assays were performed as follows. Briefly, target cells (Raji or primary CLL) were labeled by incubation at 37° C. with 100 μCi ^51Cr for 4 hours prior to co-culture with NK cells. Cells were washed, enumerated, and then added in triplicate to prepared 96-well plates containing treated NK cells at an effector:target (E:T) ratio of 25:1. […] Cultures were incubated at 37° C. for 4 hours, and then centrifuged. Supernatants were harvested and ^51Cr release was measured by liquid scintillation counting. All experiments were performed in triplicate.

For data set [5] the following is noted: within the tested dose range (through 840 mg); cited from earlier work.
Data set [6] concerns regulatory T cell (Treg). Briefly: Treg development from enriched CD4+ T cells. It counts as cell-based. The note with it: anti-TCRβ plus anti-CD28, skewing cytokines, 4 days. On the procedure:
(§1) Enriched CD4^+ T cells are plated on 24-well culture dishes that have been precoated 2 hr with 250 μL anti-TCRβ (0.5 μg/mL) plus anti-CD28 (5 μg/mL) at 37° C. in PBS. The cells are then supplemented with media containing BTK inhibitors along with the skewing cytokines as indicated in the following. The Th17 and Treg cultures are grown for 4 days before analysis. The cells are maintained for an additional 3 days with skewing cytokines (Th17; 20 ng/mL IL-6, 0.5 ng/mL TGF-β, 5 μg/mL IL-4, 5 μg/mL IFN-γ and Treg; 0.5 ng/mL TGF-β, 5 μg/mL IL-4, 5 μg/mL IFN-γ) and are supplemented with IL2 as a growth factor.

Data set [7] deals with Th17 cells. Briefly: Th17 development from enriched CD4+ T cells. It counts as cell-based. As to conditions: anti-TCRβ plus anti-CD28, skewing cytokines, 4 days. How it is done: as §1
Data set [8] deals with CD8+ T cells. Briefly: Cytotoxic T cell (CTL) assay. It counts as cell-based. The note with it: 500 nM, relative to vehicle. On the procedure: Without being bound by any theory, CD8^+ T cells have two primary effector functions: (1) produce large amounts of IFN-γ (which activates macrophages), and (2) cytolytic activity. […] The targets were B lymphoblasts from lipopolysaccharide (LPS) treated cultures. The assay was performed by incubating different ratios of effectors:targets for 4 hours.

The source of these data is US20240197742A1, “Therapeutic Combinations of a CD19 Inhibitor and a BTK Inhibitor” (Acerta Pharma B.V., priority 2015, published 2024).

Structures are written as SMILES. “Also recorded” adds a separate entry of the source.

In general, EC50 refers to the concentration that produces a half-maximal response. With `C=CC(=O)Nc1cccc(Nc2nc(Nc3ccc(OCCOC)cc3)ncc2F)c1` [Formula (17), N-(3-((5-fluoro-2-((4-(2-methoxyethoxy)phenyl)amino)pyrimidin-4-yl)amino)phenyl)acrylamide], in data set [1], the EC50 is 121 nM.

The IC50 is the concentration at which inhibition is half-maximal. A low value points to higher potency. As to `C=CC(=O)N1CCC[C@@H](n2nc(-c3ccc(Oc4ccccc4)cc3)c3c(N)ncnc32)C1` [Formula (10), 1-[(3R)-3-[4-amino-3-(4-phenoxyphenyl)-1H-pyrazolo[3,4-d]pyrimidin-1-yl]piperidin-1-yl]prop-2-en-1-one], the “effect on GPVI platelet aggregation” value in data set [2] (CVX-induced human platelet aggregation) is “significantly inhibits”. Half-maximal inhibition in data set [2] (purified human platelets, convulxin (CVX)) (IC50) was put at 130 nM. In addition, the “effect on CD8+ T cell viability” value in data set [3] was “strong, negative effect; also recorded: strongly affects”. The “cell lysis, Raji” value in data set [4] was less than 20%. Besides, in data set [5], the “maximum tolerated dose (MTD)” value is “No maximum tolerated dose (MTD) was apparent”. The entries for the “effect on Treg development” value in data set [6] and in data set [6] (listed as ibrutinib) were “strongly increases” and “increase”, respectively. For the same molecule, the “effect on Th17 cells / Th17 development” value in data set [7] is listed as “strongly inhibits”; in data set [7] (listed as ibrutinib), “profound inhibition”. The “CD8+ T cell function as measured by % cytotoxicity” value in data set [8] (4 days CTL generation) is “affects”. The “CD8+ T cell function as measured by IFN-γ level” value in data set [8] was “significant loss of function; also recorded: affects”. Besides, the EC50 in data set [1] was determined as 6.1 nM.
